These results are taken from US9523100B2, “Pesticidal compositions and related methods” (DOW AGROSCIENCES LLC, priority 2013, dated 2016).

The subject of experiment [1] is Green Peach Aphid (GPA) (Myzus persicae) (MYZUPE). The experiment can be described thus: Bioassay for Green Peach Aphid (GPA), foliar spray on cabbage seedlings. As to conditions: 72 h, read-out: GPA 200 ppm, % Control (or Mortality) rating. It counts as in vivo. In a few lines: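 Cabbage seedlings infested with 20-50 GPA (wingless adults and nymphs) one day before spraying to runoff with 200 ppm compound; four pots per treatment. Live aphids counted after three days at ~25° C; percent control by Abbott's correction against solvent-sprayed plants.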

Experiment [2] concerns Sweetpotato Whitefly-Crawler (WF) (Bemisia tabaci) (BEMITA). The experiment can be described thus: Insecticidal test for Sweetpotato Whitefly-Crawler (WF) in foliar spray assay on cotton plants. It is filed as in vivo. As to conditions: 216 h, read-out: WF 200 ppm, % Control (or Mortality) rating. The method, boiled down:
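Cotton plants carrying 200–400 whitefly eggs sprayed to run-off on both leaf surfaces at 200 ppm (acetone/0.025% Tween 20), four plants per treatment. After 9 days at about 25 °C, live 3rd–4th instar nymphs counted; Abbott-corrected percent control versus solvent check.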

[3] abbreviates: 200 ppm foliar spray on cabbage seedlings, graded after three days, Abbott corrected % control.
The mark [4] stands for this setting: 200 ppm foliar spray on cotton plants, graded after 9 days, Abbott corrected % control.

Structures are written as SMILES. Where two headings read alike, the source gives them in different places.

A word on the mortality: it is the share of the test organisms that died. Regarding `CCN(C(=O)CCC(=O)NCC(F)(F)F)c1cn(-c2cccnc2)nc1Cl` [Compound F67, N1-(3-Chloro-1-(pyridin-3-yl)-1H-pyrazol-4-yl)-N1-ethyl-N4-(2,2,2-trifluoroethyl)succinamide], the mortality at 200 ppm in experiment [1] (setting [3]) and in experiment [2] (setting [4]) was 80 to 100% throughout.
With `CCN(C(=O)C1CCCN(C(=O)CCC(F)(F)F)C1)c1cn(-c2cccnc2)nc1Cl` (centres unmarked) [FA43, N-(3-Chloro-1-(pyridin-3-yl)-1H-pyrazol-4-yl)-N-ethyl-1-(4,4,4-trifluorobutanoyl)piperidine-3-carboxamide], the mortality at 200 ppm in experiment [1] (setting [3]) and in experiment [2] (setting [4]) was 80 to 100% each time.
Take `CCN(C(=O)CC/C(C)=N/Oc1cc(C(F)(F)F)ccn1)c1cn(-c2cccnc2)nc1Cl` [Compound F36, (E/Z)-N-(3-Chloro-1-(pyridin-3-yl)-1H-pyrazol-4-yl)-N-ethyl-4-(((4-(trifluoromethyl)pyridin-2-yl)oxy)imino)pentanamide]: the mortality at 200 ppm in experiment [1] (setting [3]) and in experiment [2] (setting [4]) was 80 to 100% in each case.
On to `CCN(C(=O)CC/C(=N/OCc1ccc(C(F)(F)F)nc1)c1cccs1)c1cn(-c2cccnc2)nc1Cl` [FA37, (Z)-N-(3-Chloro-1-(pyridin-3-yl)-1H-pyrazol-4-yl)-N-ethyl-4-(thiophen-2-yl)-4-(((6-(trifluoromethyl)pyridin-3-yl)methoxy)imino)butanamide], for which the mortality at 200 ppm lay within 0 to 80% in experiment [1] (setting [3]) and 80 to 100% in experiment [2] (setting [4]).
The corresponding values for `CCN(C(=O)CNC(=O)CCC(F)(F)F)c1cn(-c2cccnc2)nc1Cl` [Compound F97, N-(2-((3-Chloro-1-(pyridin-3-yl)-1H-pyrazol-4-yl)(ethyl)amino)-2-oxoethyl)-4,4,4-trifluorobutanamide] are 80 to 100% and 80 to 100%.
The corresponding values for `CCN(C(=O)CCC(=O)CCC(F)(F)F)c1cn(-c2cccnc2)nc1Cl` [FA76, N-(3-Chloro-1-(pyridin-3-yl)-1H-pyrazol-4-yl)-N-ethyl-7,7,7-trifluoro-4-oxoheptanamide] are 0 to 80% and 80 to 100%.
On the same counts, the results for `CCN(C(=O)CCNC(=O)/C=C/C(F)(F)F)c1cn(-c2cccnc2)nc1Cl` [Compound F65, (E)-N-(3-((3-Chloro-1-(pyridin-3-yl)-1H-pyrazol-4-yl)(ethyl)amino)-3-oxopropyl)-4,4,4-trifluorobut-2-enamide] are 80 to 100% and 80 to 100%.
With `CCN(C(=O)CN(C)C(=O)c1ccccc1)c1cn(-c2cccnc2)nc1Cl` [Compound F83, N-(2-((3-chloro-1-(pyridin-3-yl)-1H-pyrazol-4-yl)(ethyl)amino)-2-oxoethyl)-N-methylbenzamide], the mortality at 200 ppm in experiment [1] (setting [3]) lay in the range of 80 to 100%; in experiment [2] (setting [4]), 0 to 80%.
The corresponding values for `CN(C(=O)CCN1CCOC1=O)c1cn(-c2cccnc2)nc1Cl` [Compound F31, N-(3-chloro-1-(pyridin-3-yl)-1H-pyrazol-4-yl)-N-methyl-3-(2-oxooxazolidin-3-yl)propanamide] are 80 to 100% and 80 to 100%.
The corresponding values for `CCN(C(=O)C1CN(C(C)=O)C1)c1cn(-c2cccnc2)nc1Cl` [Compound P23, 1-Acetyl-N-(3-chloro-1-(pyridin-3-yl)-1H-pyrazol-4-yl)-N-ethylazetidine-3-carboxamide] are 80 to 100% and 80 to 100%.
The corresponding values for `CCN(C(=O)CC/C(=N/OCC1CC(F)(F)C1)c1cccs1)c1cn(-c2cccnc2)nc1Cl` [FA31, (Z)-N-(3-Chloro-1-(pyridin-3-yl)-1H-pyrazol-4-yl)-4-(((3,3-difluorocyclobutyl)methoxy)imino)-N-ethyl-4-(thiophen-2-yl)butanamide] are under 0% and 0 to 80%.
For `CN(C(=O)CCC(=O)N1CCCC1)c1cn(-c2cccnc2)nc1Cl` [Compound F37, N-(3-Chloro-1-(pyridin-3-yl)-1H-pyrazol-4-yl)-N-methyl-4-oxo-4-(pyrrolidin-1-yl)butanamide], the mortality at 200 ppm in experiment [1] (setting [3]) fell in the range of 0 to 80%; in experiment [2] (setting [4]), 80 to 100%.
The corresponding values for `CCN(C(=O)CC/C(=N\OCCCCC(F)(F)F)c1cccs1)c1cn(-c2cccnc2)nc1Cl` [FA28, (E)-N-(3-Chloro-1-(pyridin-3-yl)-1H-pyrazol-4-yl)-N-ethyl-4-(thiophen-2-yl)-4-(((5,5,5-trifluoropentyl)oxy)imino)butanamide] are 0 to 80% and 0 to 80%.
On to `CCN(C(=O)CCN(C)C(=O)OC(C)(C)C)c1cn(-c2cccnc2)nc1Cl` [Compound F52, tert-Butyl (3-((3-chloro-1-(pyridin-3-yl)-1H-pyrazol-4-yl)(ethyl)amino)-3-oxopropyl)(methyl) carbamate], for which the mortality at 200 ppm in experiment [1] (foliar) and in experiment [2] (foliar) was 80 to 100% each time.
Consider `CCN(C(=O)CCC(=O)N(C)Cc1ccco1)c1cn(-c2cccnc2)nc1Cl` [FA77, N1-(3-Chloro-1-(pyridin-3-yl)-1H-pyrazol-4-yl)-N1-ethyl-N4-(furan-2-ylmethyl)-N4-methylsuccinamide], for which the mortality at 200 ppm in experiment [1] (setting [3]) was 0 to 80%; in experiment [2] (setting [4]), 80 to 100%.
On the same counts, the results for `CN(C(=O)CN1CCCC1=O)c1cn(-c2cccnc2)nc1Cl` [Compound F6, N-(3-Chloro-1-(pyridin-3-yl)-1H-pyrazol-4-yl)-N-methyl-2-(2-oxopyrrolidin-1-yl)acetamide] are 80 to 100% and 80 to 100%.
The corresponding values for `CCN(C(=O)CC/C(C)=N/OCc1ccc(OC(F)(F)F)cc1)c1cn(-c2cccnc2)nc1Cl` [FA40, (E/Z)-N-(3-Chloro-1-(pyridin-3-yl)-1H-pyrazol-4-yl)-N-ethyl-4-(((4-(trifluoromethoxy)benzyl)oxy)imino)pentanamide] are 0 to 80% and 80 to 100%.
In the case of `CCN(C(=O)CCNC(=O)C1(C)CC1(F)F)c1cn(-c2cccnc2)nc1Cl` (centres unmarked) [Compound F113, N-(3-((3-chloro-1-(pyridin-3-yl)-1H-pyrazol-4-yl)(ethyl)amino)-3-oxopropyl)-2,2-difluoro-1-methylcyclopropanecarboxamide], the mortality at 200 ppm in experiment [1] (setting [3]) and in experiment [2] (setting [4]) was 80 to 100% in each case.
On to `CCN(C(=O)CC/C(C)=N\O)c1cn(-c2cccnc2)nc1Cl` [FA46, (Z)-N-(3-Chloro-1-(pyridin-3-yl)-1H-pyrazol-4-yl)-N-ethyl-4-(hydroxyimino)pentanamide], for which the values for the mortality at 200 ppm in experiment [1] (setting [3]) and in experiment [2] (setting [4]) were 0 to 80% and 80 to 100%, respectively.
On the same counts, the results for `CCN(C(=O)C(C)(C)OC(C)=O)c1cn(-c2cccnc2)nc1Cl` [FA73, 1-((3-Chloro-1-(pyridin-3-yl)-1H-pyrazol-4-yl)(ethyl)amino)-2-methyl-1-oxopropan-2-ylacetate] are 80 to 100% and 0 to 80%.
The corresponding values for `CN(C)C(=O)CCC(=O)N(C)c1cn(-c2cccnc2)nc1Cl` [Compound F25, N1-(3-Chloro-1-(pyridin-3-yl)-1H-pyrazol-4-yl)-N1,N4,N4-trimethyl succinimide] are 0 to 80% and 80 to 100%.
On the same counts, the results for `CCN(C(=O)CC/C(C)=N/OCCCC(F)(F)F)c1cn(-c2cccnc2)nc1Cl` [FA19, (E/Z)-N-(3-Chloro-1-(pyridin-3-yl)-1H-pyrazol-4-yl)-N-ethyl-4-((4,4,4-trifluorobutoxy)imino) pentanamide] are 0 to 80% and 80 to 100%.
As for `CCN(C(=O)Cn1ccccc1=O)c1cn(-c2cccnc2)nc1Cl` [Compound F122, N-(3-Chloro-1-(pyridin-3-yl)-1H-pyrazol-4-yl)-N-ethyl-2-(2-oxopyridin-1(2H)-yl)acetamide], the mortality at 200 ppm lay in the range of 0 to 80% in experiment [1] (setting [3]) and 80 to 100% in experiment [2] (setting [4]).
On the same counts, the results for `CCN(C(=O)CCN1CCCCC1=O)c1cn(-c2cccnc2)nc1Cl` [Compound F8, N-(3-Chloro-1-(pyridin-3-yl)-1H-pyrazol-4-yl)-N-ethyl-3-(2-oxopiperidin-1-yl)propanamide] are 80 to 100% and 80 to 100%.
On the same counts, the results for `CCN(C(=O)C(C)C/C(C)=N\OCCC1CC1(F)F)c1cn(-c2cccnc2)nc1Cl` (centres unmarked) [FA57, (Z)-N-(3-Chloro-1-(pyridin-3-yl)-1H-pyrazol-4-yl)-4-((2-(2,2-difluorocyclopropyl)ethoxy)imino)-N-ethyl-2-methylpentanamide] are 80 to 100% and 0 to 80%.
The corresponding values for `CCN(C(=O)CCl)c1cn(-c2cccnc2)nc1Cl` [CA2, 2-Chloro-N-[3-chloro-1-(3-pyridyl)pyrazol-4-yl]-N-ethyl-acetamide] are 0 to 80% and 80 to 100%.
As to `CCN(C(=O)CCCN1CCCC1=O)c1cn(-c2cccnc2)nc1Cl` [FA33, N-(3-Chloro-1-(pyridin-3-yl)-1H-pyrazol-4-yl)-N-ethyl-4-(2-oxopyrrolidin-1-yl)butanamide], the mortality at 200 ppm in experiment [1] (setting [3]) and in experiment [2] (setting [4]) was 80 to 100% in each case.
Consider `CCSC(=O)N(C)C(C)C(=O)N(CC)c1cn(-c2cccnc2)nc1Cl` (centres unmarked) [Compound F79, S-Ethyl (1-((3-chloro-1-(pyridin-3-yl)-1H-pyrazol-4-yl)(ethyl)amino)-1-oxopropan-2-yl)(methyl) carbamothioate], for which the mortality at 200 ppm in experiment [1] (setting [3]) and in experiment [2] (setting [4]) was 0 to 80% each time.
